Experimental data as given in US12172986B2, “Splicing modulator antibody-drug conjugates and methods of use” (EISAI R&D MANAGEMENT CO., LTD., priority 2018, dated 2024).
“And” between values parts separate entries of the source, which are not always exact repeats. Equal values may be shown once.

Assays:
MCF7 cells = assay: Cell viability CellTiter-Glo, HER2-negative MCF7; settings: unconjugated payload of the ADC
Procedure: HCC1954 (American Type Culture Collection (ATCC)) breast ductal carcinoma cells were plated at 2000 cells/well in flat bottom 96-well tissue culture plates (Corning) in a total volume of 90 μL tissue culture medium supplemented with 10% fetal bovine serum (ThermoFisher Scientific). Cells were treated with a 3-fold serial dilution of compound from 200 nM to 0.03 nM. Each concentration was tested in triplicate. At the time of treatment, a plate of untreated cells was evaluated using CellTiter-Glo®2.0 Luminescent Cell Viability Assay according to the manufacturer's recommendations (Promega; #G9241). CellTiter-Glo® 2.0 reagent was added to the medium, incubated, and assayed on an EnVision Multilabel Reader (PerkinElmer). Values represent time zero (TO). […] Using the luminescence value at time zero (TO), DMSO control growth (C), and test growth in the presence of compound (T144), the percentage growth was calculated at each of the compound concentrations levels. Percentage growth inhibition was calculated as: [(T144-T0)/(C-TO)]×100 for concentrations for which T144>/=TO or [(T144-T0)/T0]×100 for concentrations for which T144<TO. The dose response curve plots were generated using Prism 7 (Graphpad) and fit using nonlinear regression analysis and the log(inhibitor) versus response-variable slope (four parameters).
(§2) HCC1954 (ATCC), 2000 cells/well), N87 (ATCC, 4000 cells/well), SKBR3 (ATCC, 3000 cells/well), and MCF7 (ATCC, 1500 cells/well) cell lines were used.

Caco-2 cells = assay: Caco-2 permeability of ADC payload; format: in vitro ADME; settings: for Permeability Caco-2 A-B (10e-6 cm/s): Table 26, corresponding payload; for Eflux ratio: B-A/A-B
Procedure: (§1) Integrity of cell monolayer was confirmed by TEER (transepithelial electrical resistance) and Lucifer yellow. Payloads were spiked in duplicate at 10 μM, separately, on both sides of the cell monolayer. Permeability rates from the apical to basolateral (A-B) direction and the basolateral to apical (B-A) direction were determined by sampling aliquots from both chambers immediately after treatment (t=0) and following incubation for 2 hours. Samples were protein precipitated with organic solvent containing internal standard and analyzed by LC-MS/MS (SCIEX; API 5500). The area ratio responses of payload/internal standard over time in both directions were used to generate permeability (cm/see) values. Efflux ratio was calculated by dividing B-A/A-B. Control compounds for low and high permeability and efflux behaved as expected.

Ad2.1 pre-mRNA splicing = assay: In vitro splicing (IVS) RT-qPCR, Ad2.1 pre-mRNA, HeLa nuclear extract; format: biochemical; settings: payload of the ADC; read-out: qPCR-IVS-AT S Gmean IC50 (nm) Ad2.1 HELA.2
Procedure: HeLa nuclear extract preparation: HeLa S3 cell pellets were resuspended in hypotonic buffer (10 mM HEPES pH 7.9, 1.5 mM MgCl2, 10 mM KCl, 0.2 mM PMSF, 0.5 mM DTT) and the suspension was brought up to a total of 5 packed cell volume (PCV). After centrifugation, the supernatant was discarded, and the cells were brought up to 3 PCV with hypotonic buffer and incubated on ice for 10 min. Cells were lysed using a dounce homogenizer and then centrifuged. […] The nuclei were gently mixed for 30 min before centrifuging. The supernatant (nuclear extract) was then dialyzed into storage buffer (20 mM HEPES pH 7.9, 100 mM KCl, 0.2 mM EDTA, 20% glycerol, 0.2 mM PMSF, 0.5 mM DTT). Protein concentration was determined using NanoDrop 8000 UV-Vis spectrophotometer (ThermoFisher Scientific).
IVS: All Ad2-derived sequences (Pellizzoni et al. (1998) Cell 95(5):615-24) were cloned into pcDNA3.1(+) vector (Promega) using 5′ EcoRI and 3′ Xbal restriction sites. The plasmids were linearized using Xbal and used as DNA templates in in vitro transcription reactions. The FtzΔi intron-less plasmid (Luo and Reed (1999) 96(26):14937-42) was linearized using EcoRI. All RNAs were in vitro transcribed and then purified using MEGAScript T7 (Invitrogen) and MegaClear (Invitrogen) kits, respectively. For splicing reactions using Ad2 variant pre-mRNAs, 1 μL reactions were prepared using 8 μg nuclear extracts prepared from HeLa S3, 2 ng pre-mRNA, 0.2 ng FTZΔi, and varying concentrations of compounds or DMSO. After a 15 min pre-incubation at 30° C., 1 μL splicing activation buffer (0.5 mM ATP, 20 mM creatine phosphate, 1.6 mM MgCl2) was added, and the reactions were incubated for 90 min at 30° C. The reactions were then quenched with 13 μL DMSO, and 25 nL was used for RT-qPCR. RT-qPCR reactions were prepared using TaqMan RNA-to-CT 1-step kit (Life Technologies), RNA from splicing reactions, Ad2 (forward: [sequence]; reverse: [sequence]; probe: [sequence]) and Ftz (forward: [sequence]; reverse: [sequence]; probe: [sequence]) mRNA primer-probe sets. Prism 7 (Graphpad) was used for non-linear regression curve fitting of the formed spliced product and normalized to the control (DMSO) sample.

HCC1954 cells = assay: Cell viability CellTiter-Glo, HCC1954; format: cell-based; settings: unconjugated payload of the ADC
Procedure: (§3) HCC1954 (American Type Culture Collection (ATCC)) breast ductal carcinoma cells were plated at 2000 cells/well in flat bottom 96-well tissue culture plates (Corning) in a total volume of 90 μL tissue culture medium supplemented with 10% fetal bovine serum (ThermoFisher Scientific). Cells were treated with a 3-fold serial dilution of compound from 200 nM to 0.03 nM. Each concentration was tested in triplicate. At the time of treatment, a plate of untreated cells was evaluated using CellTiter-Glo®2.0 Luminescent Cell Viability Assay according to the manufacturer's recommendations (Promega; #G9241). CellTiter-Glo® 2.0 reagent was added to the medium, incubated, and assayed on an EnVision Multilabel Reader (PerkinElmer). Values represent time zero (TO). […] Percentage growth inhibition was calculated as: [(T144-T0)/(C-TO)]×100 for concentrations for which T144>/=TO or [(T144-T0)/T0]×100 for concentrations for which T144<TO. The dose response curve plots were generated using Prism 7 (Graphpad) and fit using nonlinear regression analysis and the log(inhibitor) versus response-variable slope (four parameters).
as §2

MOLP8 cells = assay: Cell viability, CD138-expressing MOLP8; format: cell-based; settings: unconjugated payload of the ADC
Procedure: as §3

THP1.1 = assay: Payload cell potency and lethality CTGlo 72 h, THP1.1; format: cell-based; settings: payload
Ad2.2 pre-mRNA splicing = assay: In vitro splicing (IVS) RT-qPCR, Ad2.2 pre-mRNA, HeLa nuclear extract; format: biochemical; settings: payload of the ADC; read-out: qPCR-IVS-AT S GMean IC50 (nM) Ad2.2 HELA.2
Procedure: To evaluate payload activity in a cell-free system, an in vitro splicing assay was performed. The payloads were incubated with nuclear extracts and pre-mRNA substrate minigenes.
HeLa nuclear extract preparation: HeLa S3 cell pellets were resuspended in hypotonic buffer (10 mM HEPES pH 7.9, 1.5 mM MgCl2, 10 mM KCl, 0.2 mM PMSF, 0.5 mM DTT) and the suspension was brought up to a total of 5 packed cell volume (PCV). After centrifugation, the supernatant was discarded, and the cells were brought up to 3 PCV with hypotonic buffer and incubated on ice for 10 min. Cells were lysed using a dounce homogenizer and then centrifuged. […]. The nuclei were gently mixed for 30 min before centrifuging. The supernatant (nuclear extract) was then dialyzed into storage buffer (20 mM HEPES pH 7.9, 100 mM KCl, 0.2 mM EDTA, 20% glycerol, 0.2 mM PMSF, 0.5 mM DTT). Protein concentration was determined using NanoDrop 8000 UV-Vis spectrophotometer (ThermoFisher Scientific).
IVS: All Ad2-derived sequences (Pellizzoni et al. (1998) Cell 95(5):615-24) were cloned into pcDNA3.1(+) vector (Promega) using 5′ EcoRI and 3′ Xbal restriction sites. The plasmids were linearized using Xbal and used as DNA templates in in vitro transcription reactions. The FtzΔi intron-less plasmid (Luo and Reed (1999) 96(26):14937-42) was linearized using EcoRI. All RNAs were in vitro transcribed and then purified using MEGAScript T7 (Invitrogen) and MegaClear (Invitrogen) kits, respectively. For splicing reactions using Ad2 variant pre-mRNAs, 1 μL reactions were prepared using 8 μg nuclear extracts prepared from HeLa S3, 2 ng pre-mRNA, 0.2 ng FTZΔi, and varying concentrations of compounds or DMSO. After a 15 min pre-incubation at 30° C., 1 μL splicing activation buffer (0.5 mM ATP, 20 mM creatine phosphate, 1.6 mM MgCl2) was added, and the reactions were incubated for 90 min at 30° C. The reactions were then quenched with 13 μL DMSO, and 25 nL was used for RT-qPCR. RT-qPCR reactions were prepared using TaqMan RNA-to-CT 1-step kit (Life Technologies), RNA from splicing reactions, Ad2 (forward: […]; reverse: […]; probe: […]) and Ftz (forward: […]; reverse: […]; probe: […]) mRNA primer-probe sets. Prism 7 (Graphpad) was used for non-linear regression curve fitting of the formed spliced product and normalized to the control (DMSO) sample. […] In the presence of payload, a decrease in the amount of spliced product was observed.

PC3 cells = assay: Cell viability, EPHA2-expressing PC3; format: cell-based; settings: corresponding payload alone
Procedure: as §3

[1] = Chemical stability of ADC payload, pH 5.5 buffer; settings: for pH 5.5 Stability (t1/2, 37C): Table 26, corresponding payload, pH 5.5, 37C
N87 cells = assay: Cell viability CellTiter-Glo, N87; format: cell-based, human; settings: unconjugated payload of the ADC
Procedure: as §3, §2

SF3b complex = target: T1, SF3b complex (Homo sapiens, UniProt O75533+Q7RTV0); assay: SF3B1 binding / scintillation proximity assay (SPA); settings: payload of the ADC; read-out: SPA-AT S GMean IC50 (nM) SF381 (WT) HELA.2
T1 construct: The beads were suspended and added to the prepared nuclear extracts
Procedure: A scintillation proximity assay was performed to measure the binding affinity of compounds (“payloads”) to the SF3b complex. Batch immobilization of anti-SF3B1 antibody (MBL) to anti-mouse PVT SPA scintillation beads (PerkinElmer) was prepared as follows: for every 2.5 mg of nuclear extracts, 5 μg of anti-SF3B1 antibody and 1.5 mg of beads were mixed in 150 μL PBS. The antibody-bead mixture was incubated for 30 min at RT and centrifuged at 18,000g for 5 min. 150 μL PBS was used to resuspend every 1.5 mg antibody-bead mixture. The beads were suspended and added to the prepared nuclear extracts. The slurry was incubated for 2 hours at 4° C. with gentle mixing. The beads were then collected by centrifuging at 18,000g for 5 min, and washed twice with PBS+0.1% Triton X-100. After a final centrifugation step, every 1.5 mg of beads was suspended with 150 μL of PBS. […] The mixture was incubated for 30 min, and luminescence signals were read using a MicroBeta2 Plate Counter (PerkinElmer).

[2] = Caco-2 permeability of ADC payload; format: in vitro ADME; settings: human, Caco-2; payload, B-A/A-B; read-out: Eflux ratio
Procedure: as §1

[3] = in vivo; cited from earlier work

| Compound | Payload LD50 (MCF7 cells) | Payload Rmin (%) (MCF7 cells) | Permeability Caco-2 A-B (10e-6 cm/s) (Caco-2 cells; A-B) | IC50 (Ad2.1 pre-mRNA splicing) | Payload LD50 (HCC1954 cells) | Payload Rmin (%) (HCC1954 cells) | LD50 (nM) (payload) (MOLP8 cells) | Rmin (%) (payload) (MOLP8 cells) | CTGlo-AT S GMean LD50 (nM) 72 h THP1.1 (THP1.1) | IC50 (Ad2.2 pre-mRNA splicing) | pH 5.5 Stability (t1/2, 37C) [1] | Payload LD50 (N87 cells) | efflux ratio at 2 h, 10 μM [2] | further results |
| --- | --- | --- | --- | --- | --- | --- | --- | --- | --- | --- | --- | --- | --- | --- |
| CC[C@H](O)[C@@H](C)C1OC1C[C@@](C)(O)/C=C/C=C(\C)[C@H]1OC(=O)C[C@H](O)CC[C@@](C)(OC(C)=O)[C@@H](OC(=O)N2CCNCC2)/C=C/[C@@H]1C (stereo in doubt) [D4, (2S,3S,6S,7R,10R,E)-7-acetoxy-10-hydroxy-2-((R,2E,4E)-6-hydroxy-7-((2S,3S)-3-((2R,3S)-3-hydroxypentan-2-yl)oxiran-2-yl)-6-methylhepta-2,4-dien-2-yl)-3,7-dimethyl-12-oxooxacyclododec-4-en-6-yl piperazine-1-carboxylate] | 96.46 nM | −60.923% | 0.1 10e-6 cm/s | 20.9 nM | 6.374 nM | −81.34% | 12.99 nM | −101.935% | 33.329 nM | 17.3 nM | 4.5 | 38.774 nM | – | Perm. Mean Caco-2 A-B Perm (10e-6 cm/s) (Caco-2 cells; corresponding free payload of the ADC, A-B): 0.1 10e-6 cm/s; Perm. Mean Caco-2 B-A Perm (10e-6 cm/s) (Caco-2 cells; corresponding free payload of the ADC, B-A): 1.79 10e-6 cm/s; Eflux ratio (Caco-2 cells; payload): 17.9; Payload LD50 (PC3 cells): >400 nM |
| CC[C@H](O)[C@@H](C)[C@H]1O[C@@H]1C[C@@](C)(O)/C=C/C=C(\C)[C@H]1OC(=O)C[C@H](O)CC[C@@](C)(OC)[C@@H](OC(=O)N2CCN(CCCC(=O)O)CC2)/C=C/[C@@H]1C [D25] | >200 nM | 65.639% | 0.14 10e-6 cm/s | 244 nM | >200 nM | 26.882% | >400 nM | 5.94% | 2076.811 nM | 50.9 nM | 3.4 | >200 nM | 2.55 | IC50 (SF3b complex): 14.6 nM; permeability (in words) (Caco-2 cells; payload): poorly permeable |
| tremelimumab | – | – | – | – | – | – | – | – | – | – | – | – | – | plasma half-life [3]: approximately 22 days |
| C/C(=C\c1cc(F)cc(N2CCOCC2)c1)[C@H]1OC(=O)C[C@H](O)CC[C@H](C)[C@@H](OC(=O)N2CCN(C)CC2)/C=C/[C@@H]1C [D17] | – | – | 20 10e-6 cm/s | 17.9 nM | – | – | – | – | 24.908 nM | 9.44 nM | 7 | – | 0.896 | – |
| ipilimumab | – | – | – | – | – | – | – | – | – | – | – | – | – | plasma half-life [3]: 12 to 14 days |
| C/C(=C\c1cc(F)cc(N2CCN(C(=O)Cn3cccn3)CC2)c1)[C@H]1OC(=O)C[C@H](O)CC[C@H](C)[C@@H](OC(=O)N2CCNCC2)/C=C/[C@@H]1C [D16] | – | – | 0.72 10e-6 cm/s | 16 nM | 2.037 nM | −84.412% | – | – | 21.46 nM | 15.1 nM | 7 | >200 nM | 32.4 | GI50 (HCC1954 cells; Homo sapiens): 0.358 nM; GI50 (N87 cells; Homo sapiens): 0.41 nM |
| COc1cc2cc(c1Cl)N(C)C(=O)C[C@H](OC(=O)[C@H](C)N(C)C(=O)CCS)[C@]1(C)O[C@H]1[C@H](C)[C@@H]1C[C@@](O)(NC(=O)O1)[C@H](OC)/C=C/C=C(\C)C2 [DM1, reference compound] | – | – | – | > 25000 nM | – | – | – | – | 3.287 nM | > 25000 nM | – | – | – | IC50 (SF3b complex): > 1200 nM; Permeability Mean Caco-2 A-B Perm (10e-6 cm/s) (Caco-2 cells; payload, 10 μM, 2 hours, apical to basolateral): 0.38 10e-6 cm/s; Permeability Mean Caco-2 B-A Perm (10e-Gcm/s) (Caco-2 cells; payload, 10 μM, 2 hours, basolateral to apical): 28.6 10e-Gcm/s; CTGlo-AT S Mean MinResponse % 72 h THP1.1 (THP1.1): −93.785%; Stability Mean Stability t1/2 pH5.5 (d) ([1]; payload, 20 μM, pH 5.5 buffer, 37° C.): 1.3 d |
| C/C(=C\c1cccc(S(=O)(=O)N2CCCC2)c1)[C@H]1OC(=O)C[C@H](O)CC[C@H](C)[C@@H](OC(=O)N2CCN(C)CC2)/C=C/[C@@H]1C [D34] | – | – | 26 10e-6 cm/s | – | – | – | – | – | – | – | 7 | – | – | – |
| CC(=O)N1CCC(n2nnc3c(F)cc(/C=C(\C)[C@H]4OC(=O)C[C@H](O)CC[C@H](C)[C@@H](OC(=O)N5CCN(C)CC5)/C=C/[C@@H]4C)cc32)CC1 [D15] | 130.398 nM | −68.503% | 3.4 10e-6 cm/s | 4.63 nM | – | – | 9.178 nM | −100.198% | 11.038 nM | 4.93 nM | 7 | – | – | Payload LD50 (PC3 cells): >400 nM |
| CC[C@H](O)[C@@H](C)[C@H]1O[C@@H]1C[C@H](C)/C=C/C=C(\C)[C@H]1OC(=O)C[C@H](O)CC[C@@](C)(OC)[C@@H](OC(=O)N2CCN(C)CC2)/C=C/[C@@H]1C [D19, (2S,3S,6S,7R,10R,E)-10-hydroxy-2-((S,2E,4E)-7-((2R,3R)-3-((2R,3S)-3-hydroxypentan-2-yl)oxiran-2-yl)-6-methylhepta-2,4-dien-2-yl)-7-methoxy-3,7-dimethyl-12-oxooxacyclododec-4-en-6-yl 4-methylpiperazine-1-carboxylate] | – | – | 16 10e-6 cm/s | – | – | – | 4.58 nM | −62.2% | – | – | 0.8 | – | – | – |
| CC[C@H](O)[C@@H](C)[C@H]1O[C@@H]1C[C@@](C)(O)/C=C/C=C(\C)[C@H]1OC(=O)C[C@H](O)CC[C@@](C)(OC)[C@@H](OC(=O)N2CCN(C)CC2)/C=C/[C@@H]1C [D2, (2S,3S,6S,7R,10R,E)-10-hydroxy-2-((R,2E,4E)-6-hydroxy-7-((2R,3R)-3-((2R,3S)-3-hydroxypentan-2-yl)oxiran-2-yl)-6-methylhepta-2,4-dien-2-yl)-7-methoxy-3,7-dimethyl-12-oxooxacyclododec-4-en-6-yl 4-methylpiperazine-1-carboxylate] | 30.318 nM | −66.915% | 0.6 10e-6 cm/s | 19.1 nM and 19.3 nM | 2.758 nM | −78.732% | 5.035 nM | −100.198% | 11.708 nM | 15.3 nM | 4 | >200 nM | 22.8 | Eflux ratio (Caco-2 cells; payload): 22.756; Payload LD50 (PC3 cells): >400 nM |
